Patent US5360613A, “Method of reducing blood levels of total cholesterol and low-density lipoprotein cholesterol” (Iowa State University Research Foundation, Inc., priority 1993, dated 1994)

Key:
[1] = test system: plasma cholesterol and triglycerides; experiment: Pig feeding study, plasma cholesterol and triglycerides (Example III, Table C); assay type: in vivo, pigs; settings: for Plasma Triglycerides: control 107, ns; for Plasma Cholesterol: control 135
Protocol: A further large mammal study was carried out with pigs. Pigs comprise test animals which are more similar in certain respects to humans than ruminants.
Control: 60 g. of calcium
The pigs were housed in pens of two animals each and were allowed ad libitum access to food and water. Pigs were approximately 160 lbs. at the start of the experiment and were 240 lbs. at the end. All pigs were castrate males. At day 28 and day 43 of the experiment blood was collected from the anterior vena cava by venipuncture. Blood was collected into EDTA containing tubes, centrifuged and frozen until analyzed. At approximately 100 days of the experiment half of the animals (32) were slaughtered, and at 120 days the remaining 32 animals were slaughtered. At the time of slaughter the abdominal aorta was dissected out and external fat removed. The aorta was then split lengthwise and 1/2 fixed in formaldehyde for 48 hours. At this time aortas were removed, stretched over a 6 inch stick, washed in ethanol and stained with a lipid stain for 2 hours. After a 1 hour wash aortas were blotted and examined. All the aortas from a group were laid out on a white bench and arranged in order from least sever to most sever. The least sever had no dark red streaks on the aorta or around the small vertebral vessels leaving the aorta. The most sever lesions had multiple streaks in the middle of the aorta and dark red deposits in turbulent areas such as the branching of vessels from the aorta. The ordered aortas were then assigned a consecutive decimal number. The first (least severe) was assigned 0 and the most severe was assigned 3.2 Plasma cholesterol and triglycerides were measured by an enzyme-colorimetric assay (Sigma).
statistical analysis was accomplished by the general linear model procedure of the Statistical Analysis System (SAS). The model included the main effects of treatment and pen number. T-tests were conducted from the ANOVA standard error, to compare the HMB treatments to the control. […] It appeared that HMB can partially prevent the formation of pre-atherosclerotic lesions. No effect of KIC was noted relative to any parameter.

[2] = test system: acetate incorporation into cholesterol; settings: added to the media at very high concentrations; cited from earlier work
[3] = test system: blood cholesterol; experiment: Controlled double-blind human study, blood cholesterol (Example IV, Table D); assay type: in vivo, humans
Protocol: In view of the findings of the foregoing examples, a human study was carried out.
In a controlled double-blind study, the effects of feeding HMB on loss of urinary nitrogen, blood cholesterol and immune function in normal humans were tested. This study also measured blood components that reflect liver, kidney and tissue metabolism. In addition further measurements of nitrogen metabolism and immune function were implemented. All measurements were made in a controlled dietary situation and under blinded conditions. Normal male subjects were used who had been screened for normalcy. Ca-HMB was administered in 250 mg capsules. The subjects were instructed to take the capsules in 4 equal doses daily (with meals and at bed time). The subject ate all their meals under controlled conditions. Normal diets were used, and the amount of the diets was controlled to maintain equal and substantially constant nitrogen intake. The subjects had blood drawn before the morning meal or before they took the morning HMB dose. Each subject was studied twice: once with a placebo and once with HMB.

[4] = test system: plasma cholesterol; experiment: Lamb feeding study, plasma cholesterol (Example II, Table B); assay type: in vivo, lambs
Protocol: In view of the encouraging results of Example I, a large mammal study was carried out with lambs. HMB was administered in the form of Ca-HMB.
Cross-bred lambs were obtained from a research flock. Males were selected from a pool of 108 rams while females were selected from a pool of 63 females. Selection was based on weight range, breed and previous performance. Breeding consisted of Dorset, Polypay and Suffold crosses. Males were divided into 5 weight blocks and females into 3 weight blocks. The two heaviest male blocks contained 27 lambs, allotted to 3 pens. All other blocks contained 18 lambs, allotted to 2 pens. Animals were weighed on consecutive days prior to starting the experiment. All animals were shorn 100 days into the experiment. The animals were housed in a single confinement unit with uniform pens. The feeders were concrete bunks with water supplied by several nipple waterers per pen. Dirt flooring was bedded with oat straw when necessary. Weight blocks were placed in adjacent pens with treatment randomly assigned to the blocks. The ration was complete in all nutrients for growing sheep. The diet was formulated to contain protein in excess of the normal requirement in an effort to assure that protein was not a limiting factor for any growth response. The feeding schedule consisted of two feedings per day with the amount controlled so that the animals had eaten all the feed from the previous feeding before being fed again. Also with the feed allotment, a top-dressing of 20 g of either a control premix containing HMB was added at the equivalent of 0.5 gram per animal per day and 1.5 gram per animal per day.
Ca-HMB was prepared by minor modification of the method of Coffman, et al. J. Am. […] Each batch was given a lot number and the purity assessed by high performance liquid chromatography. A single peak was measured when HMB was chromatographed on a C18 column and eluted with 0.01M phosphate buffer, pH 7.0. […]
Blood was collected from each animal. The plasma was analyzed for cholesterol using an Abbott Spectrum Diagnostic system. […] A linear effect of HMB level was evaluated.

[5] = test system: blood cholesterol; experiment: Human dose-response study, blood cholesterol, triglycerides and glucose (Example V, Table E); assay type: in vivo, humans
Protocol: Higher dose levels than in Example IV of Ca-HMB were tested in humans. The objective was to obtain an indication of whether higher doses could be safely administered, and also whether higher doses might provide a greater reduction in total cholesterol and LDL cholesterol.
Normal humans were used in the study. Ca-HMB was administered in 250 mg capsules, and the subjects were instructed to take the capsules in 4 equal doses daily. No control of diet was attempted except they were instructed to eat as they normally would. On alternate days the subjects had blood drawn before the morning meal and before they took the morning HMB dose. Four subjects were studied for dose level of 05., 1, 2 and 4 grams per day.
Results from all samples of each subject were subjected to linear regression and the slope and intercept used to calculate the % change in concentration after 8 days on treatment. The percentage changes were then subjected to ANOVA-regression to determine if there was a linear effect of dosage on the parameter. The dose-response effect (p<) is listed in the linear effect column of Table E.

[6] = HMB change net of placebo-group change
[7] = 4 grams per day, end of the one week study

In the case of CC(C)(O)CC(=O)O [HMB, β-hydroxy-β-methylbutyric acid], the “Plasma Triglycerides” value ([1]; dietary .01%) is reported as 105 mg %, the “Plasma Cholesterol” value ([1]; dietary .01%, HMB C vs. .01% p .14) is reported as 120 mg % and the “Plasma Triglycerides” value ([1]; dietary .05%) is reported as 109 mg %. For the same molecule, the “Plasma Cholesterol” value ([1]; dietary .05%, HMB p .05, KIC ns) was 118 mg %, the “inhibition of acetate incorporation” value [2] was “no significant inhibition” and the “increase of HDL cholesterol” value ([3]; 2 g of HMB daily for two weeks) was 11%. The “reduction of LDL cholesterol” value ([3]; 2 g of HMB daily for two weeks) was 10%, the “reduction of total cholesterol” value ([3]; 2 g of HMB daily for two weeks) was 6% and the “% Net Effect HMB, HDL Cholesterol” value [3, 6] was 11%. The “% Net Effect HMB, LDL Cholesterol” value [3, 6] was -10%, the “% Net Effect HMB, LDL/HDL” value [3, 6] was -25% and the “% Net Effect HMB, Total Cholesterol” value [3, 6] was -6%. For the same molecule, the “% Change Trt. HDL Cholesterol” value ([3]; control to HMB treatment) was 3%, the “% Change Trt. LDL Cholesterol” value ([3]; control to HMB treatment) was -8% and the “% Change Trt. LDL/HDL” value ([3]; control to HMB treatment) was -12%. The “% Change Trt. Total Cholesterol” value ([3]; control to HMB treatment) was -10%, the “decrease of ratio of LDL to HDL” value ([3]; in two weeks) was 25% and the “LDL cholesterol” value ([3]; treated group on HMB, Ca HMB 1.0 grams/24 hours, calculated, pre-treatment control 118) was 107. For the same molecule, the LDL/HDL ([3]; treated group on HMB, Ca HMB 1.0 grams/24 hours, pre-treatment control 2.38) was 2.10, the “HDL cholesterol” value ([3]; treated group on HMB, Ca HMB 1.0 grams/24 hours, pre-treatment control 49.5) was 50.9 and the “Total cholesterol” value ([3]; treated group on HMB, Ca HMB 1.0 grams/24 hours, pre-treatment control 187) was 169. The Plasma Cholesterol ([4]; 0.5 g HMB daily (Ca-HMB), control 54.3, linear effect 0.05) was 51.3, the Plasma Cholesterol ([4]; 1.5 g HMB daily (Ca-HMB), control 54.3, linear effect 0.05) was 48.1 and the Plasma Cholesterol ([4]; oral consumption, lambs) was “decreased plasma cholesterol”. The cholesterol ([5]; 2 grams daily) was “appeared to decrease cholesterol”, the “decrease of LDL cholesterol” value [5, 7] was “about 6%” and the “decrease of total cholesterol” value [5, 7] was “about 6%”. The cholesterol ([5]; doses lower than 2 grams daily) was “no effect was clearly observable” and the blood cholesterol ([5]; over the course of the week) was “decreased in a dose-responsive manner”.
